Measurements taken from US20030018061A1, “Novel remedies with the use of beta 3 agonist” (priority 2000, published 2003).

Assays:
[1] = tested on: human urinary bladder compression muscle; test: Relaxation of carbachol-contracted human urinary bladder compression muscle; type: cell-based; conditions: for relaxation of bladder compression muscle, combination with propiverine: 10^−6 M propiverine plus compound (a, b, f, g 10^−9 M; c, d 10^−10 M; e, h, i 10^−8 M); for relaxation of bladder compression muscle, combination with propiverine / relaxation of bladder compression muscle, combination with oxybutynin / relaxation of bladder compression muscle, combination with tolterodine: in comparison with each compound alone; for relaxation of bladder compression muscle, combination with oxybutynin: 10^−9 M oxybutynin plus compound (a, b, f, g 10^−9 M; c 10^−10 M; e, h, i 10^−8 M); for relaxation of bladder compression muscle, combination with tolterodine: 10^−9 M tolterodine plus compound (a, b, f, g 10^−9 M; d 10^−10 M; e, h, i 10^−8 M); for concentration at which the bladder compression muscle was significantly relaxed / concentration at which the muscle was not relaxed significantly: contraction provoked by carbachol (0.5×10^−6 M), each compound alone
[2] = tested on: Mice induced with obesity by feeding with a high fat diet; test: Antiobestic effect (I): body weight of high fat diet obese mice, sibutramine and β3 agonist; type: in vivo; conditions: oral, 2 weeks; SIB 1 mg/kg; compound c, d 0.3 mg/kg; e, g 3 mg/kg; h, i 1 mg/kg; alone or combined at same doses
Method: (§1) Mice induced with obesity by feeding with a high fat diet for 2 months were orally administered with sibutramine (SIB: 1 mg/kg), a β3 agonist (compound c: 0.3 mg/kg; compound d: 0.3 mg/kg; compound e: 3 mg/kg; compound g: 3 mg/kg; compound h: 1 mg/kg; compound i: 1 mg/kg), or SIB and a β3 agonist (compound c, compound d, compound e, compound g, compound h, and compound i) in combination (each dosage was the same as the aforementioned) for 2 weeks and bred, and body weight was measured.

[3] = tested on: Mice induced with obesity by feeding with a high fat diet; test: Antiobestic effect (II): body weight of high fat diet obese mice, orlistat and β3 agonist; type: in vivo; conditions: oral, 2 weeks; orlistat 1 mg/kg; compound c, d 0.3 mg/kg; e, g 3 mg/kg; h, i 1 mg/kg; alone or combined at same doses
Method: as §1, with “orlistat (1” for “sibutramine (SIB: 1”, “orlistat” for “SIB”

Mice [4] = test: Antidiabetic effect: plasma glucose in mice, insulin and β3 agonist; type: in vivo; conditions: 30 min after dosing; INS 0.2 U/kg intraperitoneal; oral compound a 10 mg/kg; c, d 0.3 mg/kg; e, g 3 mg/kg; h, i 1 mg/kg; alone or combined
Method: Mice were administered with insulin (INS: 0.2 U/kg, intraperitoneal injection), a β3 agonist (oral administration of compound a: 10 mg/kg; compound c: 0.3 mg/kg; compound d: 0.3 mg/kg; compound e: 3 mg/kg; compound g: 3 mg/kg; compound h: 1 mg/kg; compound i: 1 mg/kg, respectively), or INS and a β3 agonist (compound a, compound c, compound d, compound e, compound g, compound h, and compound i) in combination (each dosage and administration route was the same as the aforementioned), blood was collected after 30 min, and the amount of glucose contained in blood plasma was measured.

[5] = tested on: Mice fasted overnight, glucose loaded; test: Antidiabetic effect (II): plasma glucose after glucose loading in fasted mice, glibenclamide and β3 agonist; type: in vivo; conditions: 1 hour after glucose load (1 g/kg s.c.), oral GLI 10 mg/kg, compound a 10 mg/kg, d 0.3 mg/kg, e, g 3 mg/kg, i 1 mg/kg, vs glucose loading only
Method: Mice fasted overnight were orally administered with glibenclamide (GLI: 10 mg/kg), a β3 agonist (compound a: 10 mg/kg; compound c: 0.3 mg/kg; compound d: 0.3 mg/kg; compound e: 3 mg/kg; compound g: 3 mg/kg; compound h: 1 mg/kg; compound i: 1 mg/kg), or GLI and a β3 agonist (compound a, compound c, compound d, compound e, compound g, compound h, and compound i) in combination (each dosage was the same as the aforementioned), and immediately glucose (1 g/kg, subcutaneous injection) was loaded. Blood was collected after 1 hour, and the amount of glucose contained in blood plasma was measured.
In this combined use, hypoglycemia, which is a side effect of glibenclamide, was not observed.

[6] = tested on: Genetically diabetic mice; test: Antidiabetic effect (III): genetically diabetic mice, rosiglitazone and β3 agonist; type: in vivo; conditions: oral, 2 weeks; ROS 1 mg/kg; compound c, d 0.3 mg/kg; e, g 3 mg/kg; h, i 1 mg/kg; alone or combined
Method: Genetically diabetic mice were orally administered with rosiglitazone (ROS: 1 mg/kg), a β3 agonist (compound c: 0.3 mg/kg; compound d: 0.3 mg/kg; compound e: 3 mg/kg; compound g: 3 mg/kg; compound h: 1 mg/kg; compound i: 1 mg/kg), or ROS and a β3 agonist (compound c, compound d, compound e, compound g, compound h, and compound i) in combination (each dosage was the same as the aforementioned) for 2 weeks. Blood was collected thereafter, and the amount of glucose contained in blood plasma was measured.

[7] = tested on: Genetically diabetic mice; test: Antidiabetic effect (IV): genetically diabetic mice, acarbose and β3 agonist; type: in vivo; conditions: oral, 2 weeks; ACA 1 mg/kg; compound c, d 0.3 mg/kg; e, g 3 mg/kg; h, i 1 mg/kg; alone or combined
Method: Genetically diabetic mice were orally administered with acarbose (ACA: 1 mg/kg), a β3 agonist (compound c: 0.3 mg/kg; compound d: 0.3 mg/kg; compound e: 3 mg/kg; compound g: 3 mg/kg; compound h: 1 mg/kg; compound i: 1 mg/kg), or ACA and a β3 agonist (compound c, compound d, compound e, compound g, compound h, and compound i) in combination (each dosage was the same as the aforementioned) for 2 weeks. Blood was collected thereafter, and the amount of glucose contained in blood plasma was measured.

Mice [8] = test: Antilipemic effect (II): plasma triglyceride in mice, bezafibrate and β3 agonist; type: in vivo; conditions: oral, 2 weeks; administered solely: BEZ 3 mg/kg; compound c, d 0.3 mg/kg; e, g 3 mg/kg; h, i 1 mg/kg
Method: Mice were orally administered with bezafibrate (BEZ: 3 mg/kg), a β3 agonist (compound c: 0.3 mg/kg; compound d: 0.3 mg/kg; compound e: 3 mg/kg; compound g: 3 mg/kg; compound h: 1 mg/kg; compound i: 1 mg/kg), or BEZ and a β3 agonist (compound c, compound d, compound e, compound g, compound h, and compound i) in combination (each dosage was the same as the aforementioned) for 2 weeks. Blood was collected thereafter, and the amount of triglyceride contained in blood plasma was measured.

[9] = tested on: salivation induced with pilocarpine; test: Mouth dryness: suppression of salivation induced with pilocarpine (method of Nagao et al.); type: in vivo
Source text: Examples of a selectable index of toxicity include mouth dryness, which is cited as a side effect of anticholinergic agents. Such mouth dryness can be measured by evaluating suppression of salivation induced with pilocarpine in accordance with the method of Nagao et al. (Folia Pharmacologica Japonica, Vol. 113, p156-166 (1999)). Further, elevation of blood pressure that is cited as a side effect of sibutramine can also be employed as an index of toxicity. Such elevation of blood pressure can be determined through use of a pressure transducer. Gastrointestinal dysfunction (fatty stool, defecation increase, abdominal pain, impending defecation desire) that is cited as a side effect of orlistat can also be employed as an index of toxicity. Such gastrointestinal dysfunction can be examined by analyzing the stool amount and the stool composition. Promotion of appetite that is cited as a side effect of insulin secretagogue can also be employed as an index of toxicity. Such promotion of appetite can be determined by observing body weight fluctuations using an animal, and hypoglycemia can be determined by investigating the concentration of glucose in blood. Loose passage that is cited as a side effect of α-glucosidase inhibitor can also be employed as an index of toxicity. Such loose passage and diarrhea can be investigated by, in the case of administration to animal, external observation of stool, or by analysis of stool amount and stool composition. Body weight gain that is cited as a side effect of insulin resistance improving agent can also be employed as an index of toxicity. Such body weight gain can be investigated by measurement of body weight after administration to animal. Gastrointestinal dysfunction that is cited as a side effect of HMG-CoA reductase inhibitor can also be employed as an index of toxicity. Such gastrointestinal dysfunction can be investigated by analysis of stool amount and stool composition. Gastrointestinal dysfunction that is cited as a side effect of clofibrate type drugs can also be employed as an index of toxicity. […]

[10] = in the condition of a reduced dosage

Row | Structure (SMILES) | relaxation of bladder compression muscle, combination with propiverine [1] | relaxation of bladder compression muscle, combination with oxybutynin [1] | relaxation of bladder compression muscle, combination with tolterodine [1] | concentration at which the bladder compression muscle was significantly relaxed [1] | concentration at which the muscle was not relaxed significantly [1] | body weight [2] | body weight [3] | blood glucose level (glucose in blood plasma) (Mice [4]) | blood glucose level (glucose in blood plasma) [5] | blood glucose level (glucose in blood plasma) [6] | blood glucose level (glucose in blood plasma) [7] | plasma triglyceride level (Mice [8]) | suppression of salivation (mouth dryness side effect) [9, 10] | suppression of salivation (mouth dryness side effect) ([9]; in vivo)
1 | CN(C)S(=O)(=O)Nc1cc([C@@H](O)CNCCOc2ccc3c(c2)oc2ccccc23)ccc1O [compound g, (R)-N′-[5-[2-[2-(dibenzofuran-3-iloxy)ethylamino]-1-hydroxyethyl]-2-hydroxyphenyl]-N,N-dimethyl sulfonyl amide] | relaxed significantly | relaxed significantly | relaxed significantly | 10^−7 M | 10^−9 M | almost no change in body weight | almost no change in body weight | no change in blood glucose level | almost no difference in the blood glucose level | no difference in the blood glucose level | no difference | no difference | – | –
2 | CS(=O)(=O)Nc1cc([C@@H](O)CNCCOc2ccc3c(c2)[nH]c2ccccc23)ccc1Cl [compound h, (R)-N-[5-[2-[2-(9H-carbazole-2-iloxy)ethylamino]-1-hydroxyethyl]-2-chlorophenyl]methanesulfonamide] | relaxed significantly | relaxed significantly | relaxed significantly | 10^−6 M | 10^−8 M | almost no change in body weight | almost no change in body weight | no change in blood glucose level | almost no difference in the blood glucose level | no difference in the blood glucose level | no difference | no difference | – | –
3 | CS(=O)(=O)Nc1cc([C@@H](O)CNCCOc2ccc3c(c2)[nH]c2ccccc23)ccc1Br [compound i, (R)-N-[5-[2-[2-(9H-carbazole-2-iloxy)ethylamino]-1-hydroxyethyl]-2-bromophenyl]methanesulfonamide] | relaxed significantly | relaxed significantly | relaxed significantly | 10^−6 M | 10^−8 M | almost no change in body weight | almost no change in body weight | no change in blood glucose level | almost no difference in the blood glucose level | no difference in the blood glucose level | no difference | no difference | – | –
4 | CCN(CC)CC#CCOC(=O)C(O)(c1ccccc1)C1CCCCC1 (stereo not drawn) [oxybutynin, reference compound] | – | – | – | 10^−8 M | 10^−9 M | – | – | – | – | – | – | – | observed | –
5 | CCCOC(C(=O)OC1CCN(C)CC1)(c1ccccc1)c1ccccc1 [propiverine, reference compound] | – | – | – | 10^−5 M | 10^−6 M | – | – | – | – | – | – | – | observed | –
6 | Cc1ccc(O)c([C@H](CCN(C(C)C)C(C)C)c2ccccc2)c1 [tolterodine, reference compound] | – | – | – | 10^−8 M | 10^−9 M | – | – | – | – | – | – | – | – | observed
